The text below walks through data of patent US8778974B2, “Trisubstituted 1,2,4 triazoles” (Janssen Pharmaceutica NV, priority 2008, dated 2014).

The target in the assay is T1, hα7-wt nAChR-expressing GH4Cl cells (Homo sapiens, UniProt P36544).
T1 construct: expressed in transfected cells
Put plainly: Patch-clamp current recording (whole-cell), potentiation of choline 1 mM response, PAM type. The settings on record: for EC50: according to Ex. D.2, "<5" = no top plateau reached at maximal concentration, read-out: Potency (pEC50) (converted); for Pam type: patch-clamp current recording, 1 mM choline. Format: cell-based. Also on record: key to Pam type: Type 0 compounds minimally enhance the effect size of the current elicited by 1 mM choline.; Type 1 compounds enhance the effect size of the current elicited by 1 mM choline but minimally alter the kinetics of the receptor.; Type 2 compounds enhance the effect size of the current elicited by 1 mM choline while reducing the rate and/or the extent of desensitization.; Type 3 compounds enhance the effect size of the current elicited by 1 mM choline. When tested at higher concentrations up to 10 μM they completely inhibit desensitization, in particular a 1 mM choline application of 250 milliseconds.; Type 4 compounds allow for an initial desensitization of the receptor followed by a re-opening of the receptor during agonist application. The procedure:
The compounds of the present invention are classified as type 1-4, based on qualitative kinetic properties, as determined by whole-cell voltage-clamp recordings. This classification is based on the effect of an α7 PAM compound, as described hereinbefore, on the signal elicited by an agonist application. In particular, said agonist is choline at a concentration of 1 mM. In a preferred experimental setting, said α7 PAM compound and choline are simultaneously applied to the cell, as described hereinafter. Desensitization is defined as the closure of the receptor upon activation during the application of the agonist in whole-cell voltage-clamp electrophysiology measurements seen as the reduction of the […] current after initial activation by the agonist.
The definition of the PAM types 1-4 is described hereinafter: • Type 0 compounds minimally enhance the effect size of the current elicited by 1 mM choline. • Type 1 compounds enhance the effect size of the current elicited by 1 mM choline but minimally alter the kinetics of the receptor. In particular, the rate and the extent of desensitization, elicited by the agonist, is not affected. The compound-modulated response to 1 mM choline, therefore, is a close to linear scaling of the 1 mM choline response in absence of the α7 PAM compound. • Type 2 compounds enhance the effect size of the current elicited by 1 mM choline while reducing the rate and/or the extent of desensitization. • Type 3 compounds enhance the effect size of the current elicited by 1 mM choline. […] At low-potency concentrations of the α7 PAM compound, the agonist-induced activation, which is followed by desensitization, can still be separated from the compound-induced re-opening as an initial inward current-maximum. At higher potency concentrations of the α7 PAM compound, the re-opening occurs faster than the closure due to desensitization so that the initial current-maximum disappears.
Patch-clamp Current Recording
Patch-clamp recording from mammalian cells has provided a powerful means of assessing the function of membrane-bound proteins thought to be subunits of ligand-gated ion channels. Activation of such proteins by endogenous or exogenous ligands cause opening of a pore associated with the receptor through which ions flow down their electrochemical gradient. In the case of the hα7-wt nAChR-expressing GH4Cl recombinant cell line the preferential permeability to calcium of this receptor means that calcium flows into the cell upon activation by ACh, choline and other nicotinic ligands giving rise to a calcium current. Since this receptor rapidly desensitizes in the presence of agonist it is important an application system is used which is capable of very rapid switching of solutions (<100 ms) to prevent partial or full desensitisation of receptor responses coincident with the time of agonist application. Consequently, a second convenient technique to assess the enhancement of nicotinic efficacy is patch-clamp recording from hα7-wt nAChR-expressing GH4Cl cells coupled with a rapid-application system.
• a) Assay buffers • The external recording solution consisted of 152 mM NaCl, 5 mM KCl, 1 mM MgCl2, 1 mM Calcium, 10 mM HEPES; pH 7.3. The internal recording solution consisted of 140 mM CsCl, 10 mM HEPES, 10 mM EGTA, 1 mM MgCl2, pH 7.3. • b) Patch-clamp recording was carried out using a Patch-clamp amplifier (Multiclamp 700A, Axon Instruments, Calif., USA). hα7-wt nAChR-expressing GH4Cl cells were patch-clamp in the whole cell configuration (Hamill et al, 1981) with a borosilicate glass electrode of 1.5-3 MΩ tip resistance when filled with the internal recording solution. Recordings were made on cells with membrane resistance >500 MΩ and more preferably 1GΩ and series resistance <15 MΩ with at least 60% series resistance compensation. […]
On the technique in general: Patch clamp records ionic current or voltage across a cell membrane.

T1 sequence (P36544 23-502): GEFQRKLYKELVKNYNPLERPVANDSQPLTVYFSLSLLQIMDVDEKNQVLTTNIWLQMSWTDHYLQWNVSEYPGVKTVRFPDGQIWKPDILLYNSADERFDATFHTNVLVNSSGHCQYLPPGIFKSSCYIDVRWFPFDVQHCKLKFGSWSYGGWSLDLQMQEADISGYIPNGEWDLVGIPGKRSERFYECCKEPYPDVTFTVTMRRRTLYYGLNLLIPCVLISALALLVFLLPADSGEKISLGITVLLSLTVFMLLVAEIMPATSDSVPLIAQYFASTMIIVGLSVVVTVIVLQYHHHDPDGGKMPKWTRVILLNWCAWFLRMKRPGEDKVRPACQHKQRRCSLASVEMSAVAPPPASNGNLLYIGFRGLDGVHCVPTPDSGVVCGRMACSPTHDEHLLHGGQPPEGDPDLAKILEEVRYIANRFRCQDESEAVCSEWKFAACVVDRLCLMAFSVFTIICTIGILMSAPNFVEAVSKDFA

Regarding `CNC(=O)CCc1nc(Nc2ccc(F)c(F)c2)nn1-c1ccc2c(c1)OCCO2` [E2, 3-[(3,4-Difluorophenyl)amino]-1-(2,3-dihydro-1,4-benzodioxin-6-yl)-N-methyl-1H-1,2,4-triazole-5-propanamide], the EC50 was 1020 nM and the Pam type is 3. As to `CN(C)C(=O)CCc1nc(Nc2ccc(F)c(F)c2)nn1-c1ccc2c(c1)OCCO2` [E3, 3-[(3,4-Difluorophenyl)amino]-1-(2,3-dihydro-1,4-benzodioxin-6-yl)-N,N-dimethyl-1H-1,2,4-triazole-5-propanamide], the EC50 is 43.7 nM and the Pam type is 4. Take `Cc1ncccc1-n1nc(Nc2cccc(OC(F)(F)F)c2)nc1CCC(=O)N(C)C` [E5, N,N-Dimethyl-1-(2-methyl-3-pyridinyl)-3-[[3-(trifluoromethoxy)phenyl]amino]-1H-1,2,4-triazole-5-propanamide]: the EC50 is 1170 nM and the Pam type is recorded as 4.

`Cc1cc(-n2nc(Nc3ccc(F)c(C(F)(F)F)c3)nc2CCO)ccn1` [E16]: the EC50 is 525 nM. In the case of `CNC(=O)Cc1nc(Nc2ccc(F)c(F)c2)nn1-c1ccc2c(c1)OCCO2` [E36], the EC50 is 1740 nM and the Pam type was determined as 4.

As to `CNC(=O)CCc1nc(Nc2ccc(F)c(F)c2)nn1-c1ccc(OC)cc1` [E43], the EC50 is 2000 nM and the Pam type came out at 2. With `CNC(=O)CCc1nc(Nc2ccc(F)c(C(F)(F)F)c2)nn1-c1ccc(OC)cc1` [E44], the EC50 is 661 nM. As for `CNC(=O)CCc1nc(Nc2ccc(F)c(C(F)(F)F)c2)nn1-c1ccc(OC)c(OC)c1` [E46], the EC50 was 1020 nM. The same measure, in the same setting: the figure for `CNC(=O)CCc1nc(Nc2ccc(F)c(F)c2)nn1-c1cccnc1` [E48] is above 10000 nM; for `CNC(=O)CCc1nc(Nc2ccc(F)c(F)c2)nn1-c1ccncc1` [E52] it is above 30200 nM. `CNC(=O)CCc1nc(Nc2ccc(F)c(C(F)(F)F)c2)nn1-c1ccc2c(c1)OCCO2` [E55]: the EC50 was 525 nM and the Pam type is 4.

For the compound `COc1ccc(-n2nc(Nc3ccc(F)c(C(F)(F)F)c3)nc2CCC(=O)N(C)C)cc1` [E62], the EC50 was 30.2 nM and the Pam type stood at 4. For the compound `COc1ccc(-n2nc(Nc3ccc(F)c(F)c3)nc2CCC(=O)N(C)C)cc1` [E63], the EC50 is 60.3 nM and the Pam type is on record as 4. Turning to `COc1ccc(-n2nc(Nc3ccc(F)c(F)c3)nc2CCC(=O)N(C)C)cc1OC` [E64], the EC50 was 525 nM and the Pam type stood at 4. As to `COc1ccc(-n2nc(Nc3ccc(F)c(C(F)(F)F)c3)nc2CCC(=O)N(C)C)cc1OC` [E65], the EC50 is 70.8 nM and the Pam type worked out at 4. For `CN(C)C(=O)CCc1nc(Nc2ccc(F)c(F)c2)nn1-c1ccc(OC(F)(F)F)cc1` [E66], the EC50 was 240 nM and the Pam type stood at 4.

Turning to `CN(C)C(=O)CCc1nc(Nc2ccc(F)c(F)c2)nn1-c1ccncc1` [E67], the EC50 is 447 nM and the Pam type came to 4. As to `CN(C)C(=O)CCc1nc(Nc2ccc(F)c(C(F)(F)F)c2)nn1-c1ccncc1` [E68], the EC50 was 105 nM. For the compound `CN(C)C(=O)CCc1nc(Nc2cccc(OC(F)(F)F)c2)nn1-c1ccncc1` [E69], the EC50 was 324 nM. In the case of `CN(C)C(=O)CCc1nc(Nc2cccc(OC(F)(F)F)c2)nn1-c1cccnc1` [E71], the EC50 was 617 nM and the Pam type worked out at 4.

With `CN(C)C(=O)CCc1nc(Nc2ccc(F)c(C(F)(F)F)c2)nn1-c1cccnc1` [E72], the EC50 is 339 nM.

Consider `CN(C)C(=O)CCc1nc(Nc2ccc(F)c(C(F)(F)F)c2)nn1-c1ccc2c(c1)OCCO2` [E77], for which the EC50 is 39.8 nM and the Pam type was found to be 4. For `O=C(CCc1nc(Nc2cccc(OC(F)(F)F)c2)nn1-c1cccnc1)N1CCCC1` [E78], the EC50 was 309 nM. For the compound `O=C(CCc1nc(Nc2cccc(OC(F)(F)F)c2)nn1-c1cccnc1)N1CCC(O)C1` (stereo not drawn) [E79], the EC50 is 1260 nM. As to `CCOC(=O)CCc1nc(Nc2cccc(OC(F)(F)F)c2)nn1-c1cccnc1` [E108], the EC50 is 1350 nM. On the same count and under the same terms, the result for `CCOC(=O)CCc1nc(Nc2ccc(F)c(F)c2)nn1-c1ccc2c(c1)OCCO2` [E114] reads 151 nM. `CCOC(=O)CCc1nc(Nc2ccc(F)c(C(F)(F)F)c2)nn1-c1ccc2c(c1)OCCO2` [E115]: the EC50 is 158 nM. On to `Cc1ccc(-n2nc(Nc3ccc4c(c3)OC(F)(F)O4)nc2CCC(=O)N(C)C)cn1` [E117], for which the EC50 is 191 nM and the Pam type turned out to be 4. For `CC[C@H](O)Cc1nc(Nc2ccc(F)c(F)c2F)nn1-c1cc(C)nc(C)c1` [E127, (alphaS)-1-(2,6-dimethyl-4-pyridinyl)-alpha-ethyl-3-[(2,3,4-trifluorophenyl)amino]-1H-1,2,4-triazole-5-ethanol], the EC50 is 269 nM and the Pam type was 2. Turning to `CC[C@H](O)Cc1nc(Nc2ccc(F)c(F)c2F)nn1-c1ccnc(C)c1` [E130, (alphaS)-alpha-ethyl-1-(2-methyl-4-pyridinyl)-3-[(2,3,4-trifluorophenyl)amino]-1H-1,2,4-triazole-5-ethanol], the EC50 was 269 nM and the Pam type stood at 2.

Take `CCNc1cc(-n2nc(Nc3ccc(F)c(F)c3)nc2C[C@@H](O)CC)ccn1` [E136]: the EC50 is 155 nM and the Pam type turned out to be 3. Consider `CN(C)C(=O)CCc1nc(Nc2cc(F)c(F)c(Br)c2)nn1-c1ccc2c(c1)OCCO2` [E151], for which the EC50 was 38 nM and the Pam type was determined as 4. On to `Cc1cc(-n2nc(Nc3cccc(Cl)c3F)nc2CC(=O)NCC2CC2)cc(C)n1` [E154], for which the EC50 is 219 nM and the Pam type was 2. Regarding `COc1ccc(-n2nc(Nc3cc(F)c(F)c(Br)c3)nc2CCC(=O)N(C)C)cc1` [E155], the EC50 was 28.8 nM and the Pam type was 1.

For the compound `CCNC(=O)Cc1nc(Nc2ccc3c(c2)OC(F)(F)O3)nn1-c1cc(C)ncc1C` [E163], the EC50 is 2510 nM and the Pam type is given as 4. For `Cc1cc(-n2nc(Nc3ccc(F)c(F)c3)nc2CC(=O)NC2CCC2)cc(C)n1` [E169], the EC50 was 295 nM and the Pam type is given as 2. For the compound `CN(C)C(=O)CCc1nc(Nc2cccc(OC(F)(F)F)c2)nn1-c1ccc2c(c1)OCCO2` [E170], the EC50 was 39.8 nM and the Pam type turned out to be 4. For the compound `CC[C@H](O)Cc1nc(Nc2cccc(Cl)c2F)nn1-c1cc(C)nc(C)c1` [E172], the EC50 was 302 nM and the Pam type amounted to 2. For the compound `CN(C)C(=O)CCc1nc(Nc2ccc3c(c2)OC(F)(F)O3)nn1-c1ccc2c(c1)OCCO2` [E176], the EC50 is 26.9 nM and the Pam type worked out at 4. On to `COc1ccc(-n2nc(Nc3ccc4c(c3)OC(F)(F)O4)nc2CCC(=O)N(C)C)cc1` [E178], for which the EC50 was 36.3 nM and the Pam type turned out to be 4.

With `CC[C@H](O)Cc1nc(Nc2cc(F)cc(OC)c2)nn1-c1ccnc(C)c1` [E186, (alphaS)-alpha-ethyl-3-[(3-fluoro-5-methoxyphenyl)amino]-1-(2-methyl-4-pyridinyl)-1H-1,2,4-triazole-5-ethanol], the EC50 is 1020 nM and the Pam type is given as 4.
